From PubChem BioAssay (NCI)
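Compound exposure: 48 hours, 5 concentrations, 96-well plates. GI50 = concentration required for 50% inhibition of growth. Definition used: TGI = concentration required for complete inhibition of growth.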

Assays:
Test in all cases: growth of human tumour cells (NCI), 48 h
IGROV1 ovarian = tested on: IGROV1 ovarian
T-47D breast = tested on: T-47D breast
SNB-19 CNS = tested on: SNB-19 CNS
NCI-H226 lung = tested on: NCI-H226 lung
SNB-75 CNS = tested on: SNB-75 CNS
NCI/ADR-RES ovarian = tested on: NCI/ADR-RES ovarian
UO-31 renal = tested on: UO-31 renal
UACC-62 melanoma = tested on: UACC-62 melanoma
NCI-H460 lung = tested on: NCI-H460 lung
LOX IMVI melanoma = tested on: LOX IMVI melanoma

COc1cc2cc(C(=O)N3CC(COS(C)(=O)=O)c4ccc(O)cc43)[nH]c2c(OC)c1OC (stereo unspecified)
TGI (IGROV1 ovarian): 0.0378 µM
TGI (T-47D breast): 0.0416 µM
TGI (SNB-19 CNS): 0.012 µM
TGI (NCI-H226 lung): 0.000531 µM
TGI (SNB-75 CNS): 0.00149 µM
TGI (NCI/ADR-RES ovarian): 0.524 µM
TGI (UO-31 renal): < 0.0001 µM

O=C(O)c1ccccc1N=Cc1ccc(N(CCCl)CCCl)cc1
TGI (IGROV1 ovarian): > 100 µM
TGI (UACC-62 melanoma): > 100 µM
TGI (SNB-19 CNS): > 100 µM
TGI (SNB-75 CNS): > 100 µM
TGI (NCI/ADR-RES ovarian): > 100 µM
TGI (NCI-H460 lung): > 100 µM
TGI (UO-31 renal): > 100 µM
TGI (LOX IMVI melanoma): > 100 µM

CN(C)/N=N/c1nc2c(c(=O)n(C)c(=O)n2C)n1CC(O)CO (stereo unspecified)
TGI (IGROV1 ovarian): > 100 µM
TGI (T-47D breast): > 100 µM
TGI (UACC-62 melanoma): > 100 µM
TGI (SNB-19 CNS): > 100 µM
TGI (NCI-H226 lung): > 100 µM
TGI (SNB-75 CNS): > 100 µM
TGI (NCI/ADR-RES ovarian): > 100 µM
TGI (NCI-H460 lung): > 100 µM
TGI (UO-31 renal): > 100 µM

O=C1CC(=O)n2cnc3cccc(c32)N1
TGI (IGROV1 ovarian): > 100 µM
TGI (T-47D breast): > 100 µM
TGI (UACC-62 melanoma): > 100 µM
TGI (SNB-19 CNS): > 100 µM
TGI (NCI-H226 lung): > 100 µM
TGI (SNB-75 CNS): > 100 µM
TGI (NCI/ADR-RES ovarian): > 100 µM
TGI (NCI-H460 lung): > 100 µM
TGI (UO-31 renal): > 100 µM

O=C(N/N=C/C=C/c1ccccc1)c1ccccc1Nc1ccccc1C(=O)N/N=C/C=C/c1ccccc1
TGI (IGROV1 ovarian): > 100 µM
TGI (T-47D breast): > 100 µM
TGI (UACC-62 melanoma): > 100 µM
TGI (SNB-19 CNS): > 100 µM
TGI (NCI-H226 lung): > 100 µM
TGI (SNB-75 CNS): > 100 µM
TGI (NCI/ADR-RES ovarian): > 100 µM
TGI (NCI-H460 lung): > 100 µM
TGI (UO-31 renal): > 100 µM

Cc1cc(C)c2c(c1)C(=O)/C(=C/c1ccccc1C(=O)O)C2
TGI (IGROV1 ovarian): > 100 µM
TGI (T-47D breast): > 100 µM
TGI (UACC-62 melanoma): > 100 µM
TGI (SNB-19 CNS): > 100 µM
TGI (NCI-H226 lung): > 100 µM
TGI (SNB-75 CNS): > 100 µM
TGI (NCI-H460 lung): > 100 µM
TGI (UO-31 renal): > 100 µM
TGI (LOX IMVI melanoma): > 100 µM

CCc1cc2c(c3c1CCCC3=O)CC1(Cc3ccc(C(=O)OC)cc3C1)C2 (stereo unspecified)
TGI (IGROV1 ovarian): > 100 µM
TGI (T-47D breast): > 100 µM
TGI (SNB-19 CNS): > 100 µM
TGI (NCI-H226 lung): > 100 µM
TGI (SNB-75 CNS): > 100 µM
TGI (NCI/ADR-RES ovarian): > 100 µM
TGI (NCI-H460 lung): > 100 µM
TGI (UO-31 renal): > 100 µM
TGI (LOX IMVI melanoma): > 100 µM

CC1(C)CC(=O)C2(CC(CSc3ccccc3)C(CS(=O)(=O)c3ccccc3)C2)C(=O)C1 (stereo unspecified)
TGI (IGROV1 ovarian): > 100 µM
TGI (T-47D breast): > 100 µM
TGI (UACC-62 melanoma): > 100 µM
TGI (SNB-19 CNS): > 100 µM
TGI (NCI-H226 lung): > 100 µM
TGI (SNB-75 CNS): > 100 µM
TGI (NCI/ADR-RES ovarian): > 100 µM
TGI (UO-31 renal): > 100 µM
TGI (LOX IMVI melanoma): > 100 µM

Cc1ccccc1-c1nc2c(C(=O)NCCN(C)C)cccc2[nH]1
TGI (IGROV1 ovarian): > 100 µM
TGI (UACC-62 melanoma): > 100 µM
TGI (SNB-19 CNS): > 100 µM
TGI (NCI-H226 lung): 48 µM
TGI (SNB-75 CNS): > 100 µM
TGI (NCI/ADR-RES ovarian): > 100 µM
TGI (NCI-H460 lung): > 100 µM
TGI (UO-31 renal): 68.7 µM
TGI (LOX IMVI melanoma): > 100 µM

Cc1cc(=O)[nH]c(NN2C(Cl)C(=O)C2c2ccc([N+](=O)[O-])cc2)n1 (stereo unspecified)
TGI (IGROV1 ovarian): 16.1 µM
TGI (UACC-62 melanoma): 11.5 µM
TGI (SNB-19 CNS): > 100 µM
TGI (SNB-75 CNS): 9.11 µM
TGI (NCI-H460 lung): 18.8 µM
TGI (UO-31 renal): 43.1 µM
TGI (LOX IMVI melanoma): 19.2 µM

O=[N+]([O-])c1cccc(N=Nc2c(O)c(S(=O)(=O)O)cc3cc(S(=O)(=O)O)ccc23)c1
TGI (IGROV1 ovarian): > 100 µM
TGI (T-47D breast): > 100 µM
TGI (UACC-62 melanoma): > 100 µM
TGI (SNB-19 CNS): > 100 µM
TGI (NCI-H226 lung): > 100 µM
TGI (SNB-75 CNS): > 100 µM
TGI (NCI/ADR-RES ovarian): > 100 µM
TGI (NCI-H460 lung): > 100 µM
TGI (UO-31 renal): > 100 µM

Cc1cc2c([nH]c3ccccc32)c(O)c1-c1c(C)cc2c([nH]c3ccccc32)c1O
TGI (IGROV1 ovarian): 25.2 µM
TGI (T-47D breast): 31.3 µM
TGI (SNB-19 CNS): 32.2 µM
TGI (NCI-H226 lung): 36.5 µM
TGI (SNB-75 CNS): 27.5 µM
TGI (NCI/ADR-RES ovarian): 29.4 µM
TGI (NCI-H460 lung): 16.7 µM
GI50 (UO-31 renal): 13 µM
TGI (UO-31 renal): 25.7 µM
TGI (LOX IMVI melanoma): 32.7 µM

Cn1c(-c2ccc(/C=N/NC(=S)N/N=C/c3ccc(-c4c[n+]5ccsc5n4C)cc3)cc2)c[n+]2ccsc12
TGI (IGROV1 ovarian): > 100 µM
TGI (T-47D breast): > 100 µM
TGI (SNB-19 CNS): > 100 µM
TGI (SNB-75 CNS): > 100 µM
TGI (NCI/ADR-RES ovarian): > 100 µM
TGI (NCI-H460 lung): > 100 µM
TGI (UO-31 renal): > 100 µM

COc1cccc(N[C@@H]2c3cc4c(cc3C(c3cc(OC)c(O)c(OC)c3)[C@H]3C(=O)OCC32)OCO4)c1 (stereo partly specified)
TGI (IGROV1 ovarian): 33.8 µM
TGI (UACC-62 melanoma): 2.83 µM
TGI (SNB-19 CNS): 27.7 µM
TGI (NCI-H226 lung): 2.05 µM
TGI (NCI/ADR-RES ovarian): > 70.2 µM
TGI (NCI-H460 lung): 1.6 µM
TGI (UO-31 renal): 9.78 µM
TGI (LOX IMVI melanoma): 10.3 µM

Nc1nc(Cl)cc(NC23CC4CC(CC(C4)C2)C3)n1
TGI (IGROV1 ovarian): > 100 µM
TGI (T-47D breast): > 100 µM
TGI (UACC-62 melanoma): > 100 µM
TGI (SNB-19 CNS): > 100 µM
TGI (NCI-H226 lung): > 100 µM
TGI (SNB-75 CNS): 90.8 µM
TGI (NCI/ADR-RES ovarian): > 100 µM
TGI (NCI-H460 lung): > 100 µM
TGI (UO-31 renal): > 100 µM

O=c1oc(C(C(F)(F)F)C(F)(F)F)nc2ccccc12
TGI (IGROV1 ovarian): > 100 µM
TGI (SNB-19 CNS): > 100 µM
TGI (NCI-H226 lung): > 100 µM
TGI (NCI/ADR-RES ovarian): > 100 µM
TGI (NCI-H460 lung): > 100 µM
TGI (UO-31 renal): > 100 µM
TGI (LOX IMVI melanoma): > 100 µM

NCc1cccc(O)c1O
TGI (UACC-62 melanoma): > 100 µM
TGI (SNB-19 CNS): > 100 µM
TGI (NCI-H226 lung): > 100 µM
TGI (SNB-75 CNS): > 100 µM
TGI (NCI-H460 lung): > 100 µM
TGI (UO-31 renal): > 100 µM
TGI (LOX IMVI melanoma): > 100 µM

O=C1NC(=O)C(C(CC(=O)c2ccc(Cl)cc2)c2ccc(Cl)cc2)C(=O)N1 (stereo unspecified)
TGI (IGROV1 ovarian): > 100 µM
TGI (UACC-62 melanoma): > 100 µM
TGI (SNB-19 CNS): > 100 µM
TGI (NCI-H226 lung): > 100 µM
TGI (SNB-75 CNS): > 100 µM
TGI (NCI-H460 lung): > 100 µM
TGI (UO-31 renal): > 100 µM
TGI (LOX IMVI melanoma): > 100 µM

Cc1ccc(S(=O)(=O)Nc2nnc(S(N)(=O)=O)s2)cc1
TGI (T-47D breast): > 100 µM
TGI (UACC-62 melanoma): > 100 µM
TGI (SNB-19 CNS): > 100 µM
TGI (NCI-H226 lung): > 100 µM
TGI (NCI/ADR-RES ovarian): > 100 µM
TGI (NCI-H460 lung): > 100 µM
TGI (UO-31 renal): > 100 µM
TGI (LOX IMVI melanoma): > 100 µM

CC(C)(C)n1c(=O)[nH]c(=O)n1C(C)(C)C
TGI (IGROV1 ovarian): > 100 µM
TGI (UACC-62 melanoma): > 100 µM
TGI (SNB-19 CNS): > 100 µM
TGI (NCI-H226 lung): > 100 µM
TGI (SNB-75 CNS): > 100 µM
TGI (NCI/ADR-RES ovarian): > 100 µM
TGI (NCI-H460 lung): > 100 µM
TGI (UO-31 renal): > 100 µM
TGI (LOX IMVI melanoma): > 100 µM

O=c1c(-c2ccccc2)c(SCCO)n(-c2ccccc2)c(=S)n1-c1ccccc1
TGI (IGROV1 ovarian): > 100 µM
TGI (UACC-62 melanoma): > 100 µM
TGI (SNB-19 CNS): > 100 µM
TGI (NCI-H226 lung): > 100 µM
TGI (SNB-75 CNS): > 100 µM
TGI (NCI/ADR-RES ovarian): > 100 µM
TGI (NCI-H460 lung): > 100 µM
TGI (UO-31 renal): > 100 µM
TGI (LOX IMVI melanoma): > 100 µM

C/C(=N\NC(=S)N(C)C)c1cccnn1
TGI (IGROV1 ovarian): > 40.3 µM
TGI (T-47D breast): > 100 µM
TGI (UACC-62 melanoma): 4.89 µM
TGI (SNB-19 CNS): > 100 µM
TGI (NCI-H226 lung): 4.83 µM
TGI (SNB-75 CNS): > 100 µM
TGI (NCI/ADR-RES ovarian): 36.6 µM
TGI (UO-31 renal): 5.04 µM
TGI (LOX IMVI melanoma): > 51.2 µM

CC(=O)Nc1ccc(OC/C(N)=N/NC(=O)c2ccncc2)cc1
TGI (IGROV1 ovarian): > 100 µM
TGI (T-47D breast): > 100 µM
TGI (UACC-62 melanoma): > 100 µM
TGI (SNB-19 CNS): > 100 µM
TGI (SNB-75 CNS): > 100 µM
TGI (NCI/ADR-RES ovarian): > 100 µM
TGI (NCI-H460 lung): > 100 µM
TGI (LOX IMVI melanoma): > 100 µM

c1ccc(/C(=N/Nc2ccncn2)c2ccccn2)cc1
TGI (IGROV1 ovarian): 53.6 µM
TGI (UACC-62 melanoma): > 100 µM
TGI (SNB-19 CNS): > 100 µM
TGI (NCI-H226 lung): 96.2 µM
TGI (SNB-75 CNS): 57.8 µM
TGI (NCI/ADR-RES ovarian): 49 µM
TGI (NCI-H460 lung): > 100 µM
TGI (UO-31 renal): 67.3 µM
